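The compound was tested at five concentrations on cells cultured in 96-well plates, with a 48-hour exposure period. At the GI50, growth is halved.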 Active and inactive are the calls of the source. Cut-off read from the data, not from the text of the source: active = GI50 up to about 1.1 µM and inactive = higher. Where a SMILES comes first, the peptide text is derived from it. The star is where a group is joined. Boc = CC(C)(C)OC(=O)*
What was measured:
Assay in all cases: inhibition of tumour cell growth, NCI panel, 48 h
SW-620 = tested on: SW-620
OVCAR-4 = tested on: OVCAR-4
EKVX = tested on: EKVX
CCRF-CEM = tested on: CCRF-CEM
ACHN = tested on: ACHN
OVCAR-3 = tested on: OVCAR-3
SNB-19 = tested on: SNB-19
SNB-75 = tested on: SNB-75
MOLT-4 = tested on: MOLT-4
Hs-578T = tested on: Hs-578T
SF-539 = tested on: SF-539
SK-MEL-5 = tested on: SK-MEL-5
NCI-H522 = tested on: NCI-H522
K562 = tested on: K562
NCI/ADR-RES = tested on: NCI/ADR-RES
HOP-62 = tested on: HOP-62
MCF7 = tested on: MCF7
SK-OV-3 = tested on: SK-OV-3
LOX IMVI = tested on: LOX IMVI

Row | Structure (SMILES) | GI50 (SW-620) | GI50 (OVCAR-4) | GI50 (EKVX) | GI50 (CCRF-CEM) | GI50 (ACHN) | GI50 (OVCAR-3) | GI50 (SNB-19) | GI50 (SNB-75) | GI50 (MOLT-4) | GI50 (Hs-578T) | GI50 (SF-539) | GI50 (SK-MEL-5) | GI50 (NCI-H522) | GI50 (K562) | GI50 (NCI/ADR-RES) | GI50 (HOP-62) | GI50 (MCF7) | GI50 (SK-OV-3) | GI50 (LOX IMVI)
1 | O=C(O)c1cnc2cc(OCc3ccccc3)ccc2c1O | 19.2 µM (inactive) | 16.6 µM (inactive) | 22.8 µM (inactive) | 5.37 µM (inactive) | 18.5 µM (inactive) | 20.7 µM (inactive) | 17.7 µM (inactive) | 15.7 µM (inactive) | 31.2 µM (inactive) | 20 µM (inactive) | 19 µM (inactive) | 17.7 µM (inactive) | 16.5 µM (inactive) | 23.6 µM (inactive) | 18.1 µM (inactive) | 20.7 µM (inactive) | 20.1 µM (inactive) | 22.1 µM (inactive) | –
2 | CCOC(=O)c1nc2ccc(C(F)(F)F)cc2nc1Oc1ccc(F)cc1 | > 100 µM (inactive) | > 100 µM (inactive) | > 100 µM (inactive) | > 100 µM (inactive) | > 100 µM (inactive) | – | > 100 µM (inactive) | > 100 µM (inactive) | > 100 µM (inactive) | > 100 µM (inactive) | > 100 µM (inactive) | > 100 µM (inactive) | – | 42.3 µM (inactive) | > 100 µM (inactive) | > 100 µM (inactive) | > 100 µM (inactive) | > 100 µM (inactive) | > 100 µM (inactive)
3 | CCOC(=O)[C@@]12C[C@](/C=C/OC)(O[Si](C)(C)C)[C@@]13c1cc(OC)c(OC)cc1CCN3C(=O)C2=O | > 100 µM (inactive) | > 100 µM (inactive) | > 100 µM (inactive) | > 100 µM (inactive) | > 100 µM (inactive) | > 100 µM (inactive) | > 100 µM (inactive) | > 100 µM (inactive) | > 100 µM (inactive) | > 100 µM (inactive) | > 100 µM (inactive) | > 100 µM (inactive) | – | > 100 µM (inactive) | > 100 µM (inactive) | > 100 µM (inactive) | > 100 µM (inactive) | > 100 µM (inactive) | > 100 µM (inactive)
4 | CC(=O)C(=C(I)I)c1ccccc1 | 18.3 µM (inactive) | 16.1 µM (inactive) | 25.7 µM (inactive) | 11.5 µM (inactive) | 18.3 µM (inactive) | 16.7 µM (inactive) | 18.5 µM (inactive) | – | 13.4 µM (inactive) | – | 21.1 µM (inactive) | 15.1 µM (inactive) | 12.7 µM (inactive) | 15 µM (inactive) | 21.1 µM (inactive) | 20.9 µM (inactive) | 27.6 µM (inactive) | 41.9 µM (inactive) | 18.1 µM (inactive)
5 | C=CC[C@H]1O[Si](C(C)(C)C)(C(C)(C)C)[C@H](C)[C@H]1C | > 100 µM (inactive) | > 100 µM (inactive) | > 100 µM (inactive) | > 100 µM (inactive) | 39.4 µM (inactive) | > 100 µM (inactive) | 13.6 µM (inactive) | > 100 µM (inactive) | > 100 µM (inactive) | – | > 100 µM (inactive) | > 100 µM (inactive) | > 100 µM (inactive) | > 100 µM (inactive) | > 100 µM (inactive) | > 100 µM (inactive) | > 100 µM (inactive) | > 100 µM (inactive) | > 100 µM (inactive)
6 | COC(=O)c1c(O)ccc2c1c1c(n2Cc2cc(OC)cc(OC)c2)C(=O)c2ccccc2C1 | 51.8 µM (inactive) | 11.2 µM (inactive) | – | 18.2 µM (inactive) | – | 43.2 µM (inactive) | > 100 µM (inactive) | 4.7 µM (inactive) | 58.1 µM (inactive) | 87.3 µM (inactive) | 50.6 µM (inactive) | 34.3 µM (inactive) | – | 66.8 µM (inactive) | 16.7 µM (inactive) | > 100 µM (inactive) | 23.7 µM (inactive) | 29 µM (inactive) | 33.1 µM (inactive)
7 | Oc1ccc(N=C2CCC(=C(c3ccccc3)c3ccc(Nc4ccc(O)cc4)cc3)CC2)cc1 | 58.1 µM (inactive) | 86.5 µM (inactive) | – | 88.9 µM (inactive) | 67.1 µM (inactive) | – | 78.5 µM (inactive) | – | 83.6 µM (inactive) | – | 46.1 µM (inactive) | > 100 µM (inactive) | 47 µM (inactive) | > 100 µM (inactive) | 80.9 µM (inactive) | – | > 100 µM (inactive) | 62.1 µM (inactive) | 73.3 µM (inactive)
8 | O=c1c2ccccc2nc(-c2cccc(Cl)c2)n1NC1OC(CO)C(O)C(O)C1O (centres undefined) | > 100 µM (inactive) | > 100 µM (inactive) | > 100 µM (inactive) | 73.3 µM (inactive) | > 100 µM (inactive) | > 100 µM (inactive) | > 100 µM (inactive) | > 100 µM (inactive) | > 100 µM (inactive) | – | > 100 µM (inactive) | > 100 µM (inactive) | > 100 µM (inactive) | > 100 µM (inactive) | – | > 100 µM (inactive) | – | > 100 µM (inactive) | –
9 | Cc1nc(-c2cc3c(ccc4ccccc43)oc2=O)cc2c1c(=O)oc1ccc3ccccc3c12 | > 100 µM (inactive) | > 100 µM (inactive) | > 100 µM (inactive) | > 100 µM (inactive) | > 100 µM (inactive) | > 100 µM (inactive) | > 100 µM (inactive) | – | > 100 µM (inactive) | – | > 100 µM (inactive) | > 100 µM (inactive) | > 100 µM (inactive) | > 100 µM (inactive) | > 100 µM (inactive) | > 100 µM (inactive) | > 100 µM (inactive) | > 100 µM (inactive) | > 100 µM (inactive)
10 | O=C(Nc1ccn(CCOC(=O)c2ccccc2)c(=O)n1)c1ccccc1 | > 100 µM (inactive) | > 100 µM (inactive) | > 100 µM (inactive) | > 100 µM (inactive) | > 100 µM (inactive) | > 100 µM (inactive) | – | > 100 µM (inactive) | – | – | > 100 µM (inactive) | > 100 µM (inactive) | > 100 µM (inactive) | > 100 µM (inactive) | – | > 100 µM (inactive) | – | > 100 µM (inactive) | > 100 µM (inactive)
11 | C#CCNC(CS)C(=O)O (centres undefined) | > 100 µM (inactive) | > 100 µM (inactive) | > 100 µM (inactive) | > 100 µM (inactive) | > 100 µM (inactive) | > 100 µM (inactive) | > 100 µM (inactive) | > 100 µM (inactive) | > 100 µM (inactive) | > 100 µM (inactive) | – | > 100 µM (inactive) | > 100 µM (inactive) | > 100 µM (inactive) | > 100 µM (inactive) | > 100 µM (inactive) | – | > 100 µM (inactive) | > 100 µM (inactive)
12 | CSc1c(C(=O)Nc2ccc(C)cc2)c(N)nn1-c1ccccc1 | > 100 µM (inactive) | 13 µM (inactive) | 49.4 µM (inactive) | > 100 µM (inactive) | 43.8 µM (inactive) | > 100 µM (inactive) | 26.7 µM (inactive) | – | > 100 µM (inactive) | 46.9 µM (inactive) | 35.8 µM (inactive) | > 100 µM (inactive) | 71.4 µM (inactive) | > 100 µM (inactive) | – | 57.7 µM (inactive) | > 100 µM (inactive) | 64.6 µM (inactive) | > 100 µM (inactive)
13 | CC(C)(C)c1ccc2c(c1)OCc1n[nH]c(n1)COc1cc(C(C)(C)C)ccc1OCCOCCO2 | 3.16 µM (inactive) | 0.248 µM (active) | 4.3 µM (inactive) | 5.31 µM (inactive) | 4.39 µM (inactive) | 2.53 µM (inactive) | 4.23 µM (inactive) | 5.27 µM (inactive) | 3.67 µM (inactive) | 2.26 µM (inactive) | 7.29 µM (inactive) | 2.38 µM (inactive) | 2.4 µM (inactive) | 4.27 µM (inactive) | 3.41 µM (inactive) | 5.62 µM (inactive) | 3.31 µM (inactive) | 3.77 µM (inactive) | –
14 | Cc1ccc(-c2c(C#N)c(O)n(NS(=O)(=O)c3ccccc3)c(=O)c2C#N)cc1 | > 100 µM (inactive) | > 100 µM (inactive) | > 100 µM (inactive) | > 100 µM (inactive) | > 100 µM (inactive) | – | > 100 µM (inactive) | > 100 µM (inactive) | > 100 µM (inactive) | – | > 100 µM (inactive) | 68.5 µM (inactive) | > 100 µM (inactive) | > 100 µM (inactive) | > 100 µM (inactive) | > 100 µM (inactive) | > 100 µM (inactive) | > 100 µM (inactive) | > 100 µM (inactive)
15 | O=C(N/N=C/c1cc(Cl)cc(Cl)c1O)c1ccncc1 | > 100 µM (inactive) | – | 22 µM (inactive) | 31.2 µM (inactive) | 68.9 µM (inactive) | 32.2 µM (inactive) | > 100 µM (inactive) | > 100 µM (inactive) | 36.9 µM (inactive) | – | 68.5 µM (inactive) | 81.3 µM (inactive) | > 100 µM (inactive) | > 100 µM (inactive) | – | 53.2 µM (inactive) | – | > 100 µM (inactive) | > 100 µM (inactive)
16 | CC(NC(=O)C1CCCN1C(=O)CNC(=O)OC(C)(C)C)C(=O)O (stereo not drawn) (Boc-Gly-Pro-Ala-OH; configuration not given here) | > 100 µM (inactive) | – | > 100 µM (inactive) | – | > 100 µM (inactive) | > 100 µM (inactive) | > 100 µM (inactive) | > 100 µM (inactive) | > 100 µM (inactive) | > 100 µM (inactive) | > 100 µM (inactive) | > 100 µM (inactive) | > 100 µM (inactive) | > 100 µM (inactive) | > 100 µM (inactive) | > 100 µM (inactive) | > 100 µM (inactive) | > 100 µM (inactive) | –

Reference: ChEMBL document CHEMBL1201862, “PubChem BioAssay data set” (2004)
